Results taken from patent US9481676B2, “Azepino[4,5-B]indoles and methods of use” (Medivation Technologies, Inc., priority 2008, dated 2016).

Columns and labels:
[1] = target: T1, human recombinant serotonin (5-Hydroxytryptamine) 5-HT6 receptor (Homo sapiens, UniProt P50406); assay: Serotonin 5-HT6 radioligand binding ([3H]LSD); conditions: compound at 1 μM; read-out: Serotonin (1 μM) 5-HT6, percent inhibition of specific binding
T1 construct: expressed in transfected cells; host or cells: human HeLa cells
Outline: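 Human recombinant 5-HT6 receptor from HeLa cells incubated with 1.5 nM [3H]LSD for 120 min at 37° C in 50 mM Tris-HCl pH 7.4, 150 mM NaCl, 2 mM ascorbic acid, 0.001% BSA. Nonspecific binding defined with 5 μM serotonin; bound ligand counted after filtration.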

[2] = target: T2, human recombinant serotonin (5-Hydroxytryptamine) 5-HT2A receptor (Homo sapiens, UniProt P28223); assay: Serotonin 5-HT2A radioligand binding ([3H]Ketanserin); conditions: compound at 1 μM; read-out: Serotonin (1 μM) 5-HT2A, percent inhibition of specific binding
T2 construct: expressed in transfected cells; host or cells: CHO-K1 cells
Outline: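 Percent inhibition of specific [3H]ketanserin (0.5 nM) binding, filtration read-out, with compounds at ≤1 μM (1% DMSO vehicle). Receptor source: recombinant human 5-HT2A in CHO-K1 cells, 50 mM Tris-HCl pH 7.4, 60 min, 25 °C; 1 μM mianserin gives nonspecific binding.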

[3] = target: T3, human recombinant serotonin (5-Hydroxytryptamine) 5-HT2C receptor (Homo sapiens, UniProt P28335); assay: Serotonin 5-HT2C radioligand binding ([3H]Mesulergine); conditions: compound at 1 μM; read-out: Serotonin (1 μM) 5-HT2C, percent inhibition of specific binding
T3 construct: expressed in transfected cells; host or cells: CHO-K1 cells
T3 sequence (P28335 33-458): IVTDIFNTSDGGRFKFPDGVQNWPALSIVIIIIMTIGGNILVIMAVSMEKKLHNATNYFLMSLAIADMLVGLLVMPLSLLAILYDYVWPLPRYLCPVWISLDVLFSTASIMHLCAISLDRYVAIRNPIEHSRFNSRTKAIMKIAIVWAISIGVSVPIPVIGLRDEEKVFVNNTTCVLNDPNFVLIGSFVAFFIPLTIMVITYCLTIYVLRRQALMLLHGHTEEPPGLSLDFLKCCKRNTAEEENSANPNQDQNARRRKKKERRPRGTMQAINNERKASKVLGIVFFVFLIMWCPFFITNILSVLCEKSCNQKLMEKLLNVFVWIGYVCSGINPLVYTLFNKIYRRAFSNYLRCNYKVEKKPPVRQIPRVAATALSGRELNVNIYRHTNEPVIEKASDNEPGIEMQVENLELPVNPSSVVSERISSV
Outline: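 Membranes from CHO-K1 cells expressing human 5-HT2C, incubated with 1 nM [3H]mesulergine for 60 min at 25 °C in 50 mM Tris-HCl pH 7.4 with ascorbic acid and pargyline.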

[4] = target: T4, human recombinant histamine H1 receptor (Homo sapiens, UniProt P35367); assay: Histamine H1 radioligand binding ([3H]Pyrilamine); conditions: compound at 1 μM; read-out: Histamine Binding (1 μM) H1, percent inhibition of specific binding
T4 construct: expressed in transfected cells; host or cells: CHO cells
Outline: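 Membranes from CHO cells expressing the receptor were incubated with compound and 1.2 nM [3H]pyrilamine for 180 min at 25 °C in 50 mM Tris-HCl pH 7.4 with MgCl2, NaCl and sucrose; 1 μM pyrilamine defined non-specific binding. Filter-bound radioactivity was counted.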

T2 sequence (P28223 whole entry): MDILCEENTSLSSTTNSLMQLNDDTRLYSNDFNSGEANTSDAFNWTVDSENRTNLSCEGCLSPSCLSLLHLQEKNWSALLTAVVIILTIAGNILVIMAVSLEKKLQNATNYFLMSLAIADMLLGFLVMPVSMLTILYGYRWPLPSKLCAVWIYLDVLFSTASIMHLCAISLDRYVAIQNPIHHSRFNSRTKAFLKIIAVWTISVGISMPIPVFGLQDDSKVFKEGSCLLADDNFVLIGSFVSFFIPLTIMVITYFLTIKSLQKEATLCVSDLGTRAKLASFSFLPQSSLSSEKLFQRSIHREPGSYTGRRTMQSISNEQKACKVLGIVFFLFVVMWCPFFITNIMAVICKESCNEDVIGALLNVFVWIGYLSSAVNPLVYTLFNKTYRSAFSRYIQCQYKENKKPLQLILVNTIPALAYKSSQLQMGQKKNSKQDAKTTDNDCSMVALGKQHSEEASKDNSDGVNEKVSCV
T4 sequence (P35367 whole entry): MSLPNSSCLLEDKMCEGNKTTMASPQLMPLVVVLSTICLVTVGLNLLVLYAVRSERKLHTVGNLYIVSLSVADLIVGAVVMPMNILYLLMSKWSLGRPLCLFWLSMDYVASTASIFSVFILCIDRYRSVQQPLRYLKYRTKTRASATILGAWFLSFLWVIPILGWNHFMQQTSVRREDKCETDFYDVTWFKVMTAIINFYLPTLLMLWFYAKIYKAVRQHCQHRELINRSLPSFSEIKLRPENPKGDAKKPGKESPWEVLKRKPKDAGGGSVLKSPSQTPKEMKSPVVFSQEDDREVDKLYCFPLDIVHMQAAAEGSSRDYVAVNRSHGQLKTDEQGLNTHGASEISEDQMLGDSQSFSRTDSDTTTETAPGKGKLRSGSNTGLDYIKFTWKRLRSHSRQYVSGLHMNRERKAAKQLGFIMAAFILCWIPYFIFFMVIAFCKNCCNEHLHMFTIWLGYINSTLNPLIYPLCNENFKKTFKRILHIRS
T1 sequence (P50406 whole entry): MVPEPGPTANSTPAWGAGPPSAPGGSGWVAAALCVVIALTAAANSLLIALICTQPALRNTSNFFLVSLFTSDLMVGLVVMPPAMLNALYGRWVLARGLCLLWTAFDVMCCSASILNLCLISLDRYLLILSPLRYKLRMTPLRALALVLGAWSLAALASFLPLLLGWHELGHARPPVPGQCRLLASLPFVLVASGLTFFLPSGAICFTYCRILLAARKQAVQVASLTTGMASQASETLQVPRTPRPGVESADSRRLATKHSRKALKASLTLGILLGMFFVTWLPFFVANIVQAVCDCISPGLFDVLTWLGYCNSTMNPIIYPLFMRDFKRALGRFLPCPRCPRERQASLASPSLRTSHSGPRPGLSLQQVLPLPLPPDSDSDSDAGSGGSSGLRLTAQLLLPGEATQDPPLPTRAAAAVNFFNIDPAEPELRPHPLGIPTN

SMILES	inhibition at 1 µM [1]	inhibition at 1 µM [2]	inhibition at 1 µM [3]	inhibition at 1 µM [4]
Cc1ccc(C(O)Cn2c3c(c4cc(Cl)ccc42)CCN(C)CC3)cn1 (stereo not drawn) [Compound No. 7, 2-(9-chloro-2,3,4,5-tetrahydro-3-methylazepino[4,5-b]indol-6(1H)-yl)-1-(6-methylpyridin-3-yl)ethanol]	36%	80%	64%	101%
C/C(=C\n1c2c(c3cc(C)ccc31)CCN(C)CC2)c1ccc(F)cc1 [Compound No. 34, 6-((E)-2-(4-fluorophenyl)prop-1-enyl)-1,2,3,4,5,6-hexahydro-3,9-dimethylazepino[4,5-b]indole]	103%	98%	97%	95%
CN1CCc2c(n(CC(=O)N3CCCC3)c3ccc(Cl)cc23)CC1 [Compound No. 53, 2-(9-chloro-2,3,4,5-tetrahydro-3-methylazepino[4,5-b]indol-6(1H)-yl)-1-(pyrrolidin-1-yl)ethanone]	-1%	41%	32%	14%
C/C(=C\n1c2c(c3cc(Cl)ccc31)CCN(C)CC2)c1ccc(Cl)cc1Cl [Compound No. 239, (E)-9-chloro-6-(2-(2,4-dichlorophenyl)prop-1-enyl)-3-methyl-1,2,3,4,5,6-hexahydroazepino[4,5-b]indole]	59%	102%	97%	91%
COc1ccc(C(O)Cn2c3c(c4cc(Cl)ccc42)CCN(C)CC3)c(F)c1 (stereo not drawn) [Compound No. 49, 2-(9-chloro-2,3,4,5-tetrahydro-3-methylazepino[4,5-b]indol-6(1H)-yl)-1-(2-fluoro-4-methoxyphenyl) ethanol]	88%	97%	98%	94%
Cc1ccc2c(c1)c1c(n2CC(O)c2ccccc2F)CCN(C)CC1 (stereo not drawn) [Compound No. 41, 1-(2-fluorophenyl)-2-(2,3,4,5-tetrahydro-3,9-dimethylazepino[4,5-b]indol-6(1H)-yl)ethanol]	101%	99%	99%	100%
CN1CCc2c(n(CC(O)c3ccc(Cl)cc3)c3ccc(Cl)cc23)CC1 (stereo not drawn) [Compound No. 16, 2-(9-chloro-2,3,4,5-tetrahydro-3-methylazepino[4,5-b]indol-6(1H)-yl)-1-(4-chlorophenyl)ethanol]	78%	101%	92%	103%
CN1CCc2c(n(CC(C)(O)c3ccc(F)cc3)c3ccc(Cl)cc23)CC1 (stereo not drawn) [Compound No. 13, 1-(9-chloro-2,3,4,5-tetrahydro-3-methylazepino[4,5-b]indol-6(1H)-yl)-2-(4-fluorophenyl)propan-2-ol]	100%	97%	89%	98%
CN1CCc2c(n(CC(=O)N3CCNCC3)c3ccc(Cl)cc23)CC1 [Compound No. 72, 2-(9-chloro-2,3,4,5-tetrahydro-3-methylazepino[4,5-b]indol-6(1H)-yl)-1-(piperazin-1-yl)ethanone]	39%	23%	53%	-12%
CN1CCc2c(n(CC(O)c3ccc(F)cc3)c3ccc(Cl)cc23)CC1 (stereo not drawn) [Compound No. 51, 2-(9-chloro-2,3,4,5-tetrahydro-3-methylazepino[4,5-b]indol-6(1H)-yl)-1-(4-fluorophenyl) ethanol]	94%	97%	98%	102%
CN1CCc2c(n(CC(=O)OCc3ccccc3)c3ccc(Cl)cc23)CC1 [Compound No. 75, Benzyl-2-(9-chloro-2,3,4,5-tetrahydro-3-methylazepino[4,5-b]indol-6(1H)-yl)acetate]	-2%	34%	13%	20%
C/C(=C\n1c2c(c3cc(Cl)ccc31)CCN(C)CC2)c1ccc(Cl)cc1 [Compound No. 36, 9-chloro-6-((E)-2-(4-chlorophenyl)prop-1-enyl)-1,2,3,4,5,6-hexahydro-3-methylazepino[4,5-b]indole]	99%	97%	83%	88%
